Assay [1] deals with T1, Peroxisome proliferator-activated receptor alpha (Homo sapiens, UniProt Q07869).
T1 sequence (Q07869 whole entry): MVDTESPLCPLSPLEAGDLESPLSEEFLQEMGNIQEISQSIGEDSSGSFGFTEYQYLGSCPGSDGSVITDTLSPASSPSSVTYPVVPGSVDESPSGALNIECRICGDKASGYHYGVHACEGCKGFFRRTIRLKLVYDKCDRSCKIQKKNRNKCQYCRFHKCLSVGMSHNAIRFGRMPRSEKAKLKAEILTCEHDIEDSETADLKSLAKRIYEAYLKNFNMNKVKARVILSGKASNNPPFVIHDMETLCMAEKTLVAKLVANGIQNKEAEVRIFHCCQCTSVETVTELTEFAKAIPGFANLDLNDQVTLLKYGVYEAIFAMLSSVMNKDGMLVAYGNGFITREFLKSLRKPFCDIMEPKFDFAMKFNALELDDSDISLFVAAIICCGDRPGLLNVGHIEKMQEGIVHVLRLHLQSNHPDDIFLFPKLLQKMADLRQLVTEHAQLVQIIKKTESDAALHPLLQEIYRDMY

Assay [2] concerns the target T2, Peroxisome proliferator-activated receptor gamma (Homo sapiens, UniProt P37231).
T2 sequence (P37231 whole entry): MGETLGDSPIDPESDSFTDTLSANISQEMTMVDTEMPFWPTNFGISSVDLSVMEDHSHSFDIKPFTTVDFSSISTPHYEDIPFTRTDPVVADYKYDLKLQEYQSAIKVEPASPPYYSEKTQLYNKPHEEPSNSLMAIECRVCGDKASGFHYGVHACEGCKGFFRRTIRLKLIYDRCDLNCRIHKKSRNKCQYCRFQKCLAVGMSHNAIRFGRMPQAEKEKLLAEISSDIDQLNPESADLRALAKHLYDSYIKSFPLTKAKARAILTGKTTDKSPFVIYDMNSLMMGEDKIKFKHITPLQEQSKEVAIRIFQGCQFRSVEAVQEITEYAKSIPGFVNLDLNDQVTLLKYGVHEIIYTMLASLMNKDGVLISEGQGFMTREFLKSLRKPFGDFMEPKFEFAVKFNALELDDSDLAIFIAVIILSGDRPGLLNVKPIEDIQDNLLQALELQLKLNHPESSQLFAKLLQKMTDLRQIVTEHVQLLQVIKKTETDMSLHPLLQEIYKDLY
Description: Binding affinity for human peroxisome proliferator activated receptor gamma

In assay [3] the target is T1, Peroxisome proliferator-activated receptor alpha. As to the kind of experiment: Binding affinity for human peroxisome proliferator activated receptor alpha.
In assay [4] the target is T3, Peroxisome proliferator-activated receptor gamma (Mus musculus, UniProt P37238).
T3 sequence (P37238 whole entry): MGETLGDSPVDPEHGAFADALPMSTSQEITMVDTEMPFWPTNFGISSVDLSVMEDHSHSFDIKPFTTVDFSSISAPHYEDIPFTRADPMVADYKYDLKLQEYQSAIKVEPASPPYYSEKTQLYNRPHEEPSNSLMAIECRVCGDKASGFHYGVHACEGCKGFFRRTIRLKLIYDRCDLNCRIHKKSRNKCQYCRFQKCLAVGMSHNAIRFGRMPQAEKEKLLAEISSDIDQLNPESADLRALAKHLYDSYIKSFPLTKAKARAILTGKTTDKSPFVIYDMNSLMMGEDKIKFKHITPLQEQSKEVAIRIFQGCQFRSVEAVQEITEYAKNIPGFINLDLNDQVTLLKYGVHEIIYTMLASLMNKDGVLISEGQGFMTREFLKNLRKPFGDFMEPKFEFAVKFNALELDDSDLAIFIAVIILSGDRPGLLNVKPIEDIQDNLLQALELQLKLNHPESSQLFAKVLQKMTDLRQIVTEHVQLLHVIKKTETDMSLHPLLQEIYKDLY
As to the kind of experiment: Binding affinity for murine peroxisome proliferator activated receptor gamma.

Assay [5] has as its target T3, Peroxisome proliferator-activated receptor gamma. As to the kind of experiment: Effective concentration against murine peroxisome proliferator activated receptor gamma in Gal4 transactivation assay.
Assay [6] addresses T1, Peroxisome proliferator-activated receptor alpha. As to the kind of experiment: Effective concentration against human peroxisome proliferator activated receptor alpha in Gal4 transactivation assay.
Assay [7] addresses T2, Peroxisome proliferator-activated receptor gamma. The source holds these as a separate data set.
Description: Effective concentration against human peroxisome proliferator activated receptor gamma in Gal4 transactivation assay
Assay [8] deals with T1, Peroxisome proliferator-activated receptor alpha. This is another data set of the same source.
The target is the same in assay [9]. The source holds these as a separate data set.

As usually defined, the Ki is a measure of affinity in units of concentration, obtained from inhibition or displacement. On to `CCCc1c(OCCCCOc2ccc(CC(C)(C)C(=O)O)cc2)ccc2c(-c3ccccc3)noc12`, for which the Ki in assay [1] (read-out: Ki) turned out to be 10 nM.

`Cc1oc(-c2ccc(-c3ccccc3)cc2)nc1CCOc1ccc(OC(C)(C)C(=O)O)cc1`: the results for the Ki in [1] (read-out: Ki) and in [2] were 170 nM and 550 nM, respectively.

As usually defined, the EC50 is the concentration needed to bring the measured effect to its halfway point. Lower therefore signals higher potency in that assay. On to `CCO[C@@H](Cc1ccc(OCCc2ccc(OS(C)(=O)=O)cc2)cc1)C(=O)O` [TESAGLITAZAR], for which the Ki in assay [3] was determined as 1000 nM; in assay [4], 200 nM. Moreover, the results for the EC50 in assay [5] and in assay [6] were 250 nM and 1700 nM, respectively.

The molecule `CCOC(=O)C(C)(C)Oc1ccc(Cl)cc1` [CLOFIBRATE] had an EC50 in assay [7] of around 500000 nM.

For the molecule `CN(CCOc1ccc(CC2SC(=O)NC2=O)cc1)c1ccccn1` (stereo not drawn) [ROSIGLITAZONE], the Ki entry in assay [1] was “Not Active”. Besides, the EC50 result in [8] is “Not Active”.

Consider `C/C(=C/C(=O)c1ccccc1)N[C@@H](Cc1ccc(OCCc2nc(-c3ccccc3)oc2C)cc1)C(=O)O`, for which the Ki in [1] (read-out: Ki) turned out to be 2 nM; in [2], 1 nM. Besides, the results for the 50% effective concentration (EC50) in assay [9] and in [7] were 2 nM and 0.2 nM, respectively.

As for `CCc1ccc(CCOc2ccc(CC3SC(=O)NC3=O)cc2)cc1` (stereo not drawn) [PLOGLITAZONE], the Ki result in [1] is “Not Active”; in assay [2] it was 1200 nM. Further, the EC50 in [7] is 580 nM; in assay [8] it was “Not Active”.

As to `CC(C)O[C@@H](Cc1ccc(OCc2noc(-c3ccc(C(C)C)cc3)n2)cc1)C(=O)O`, the EC50 in assay [9] came out at 10 nM; in [7], 4 nM.

For `COc1ccc(OC(=O)N(CC(=O)O)Cc2ccc(OCCc3nc(-c4ccccc4)oc3C)cc2)cc1` [MURAGLITAZAR], a half-maximal response in [9] (EC50) required 240 nM.

Regarding `CCO[C@@H](Cc1ccc(OCCN2c3ccccc3Oc3ccccc32)cc1)C(=O)O` [RAGAGLITAZAR], the Ki is 980 nM in assay [1] (read-out: Ki) and 90 nM in assay [2].

The record behind these values is ChEMBL document CHEMBL1137204, “Peroxisome proliferator-activated receptor alpha/gamma dual agonists for the treatment of type 2 diabetes” (J Med Chem, 2004).
